Consider 16 compounds from US20070269664A1, “Gas Barrier Laminated Film and Process for Producing the Same” (Sai Nippon Printing Co., Ltd., priority 2004, published 2007).

What is called mortality is the percentage killed.

SMILES strings stand for the structures.

The subject of this assay is cotton aphid (Aphis gossypii). In words: Foliar spray test on cotton seedlings infested with cotton aphid. The settings on record: 72 h, read-out: Percent Mortality. In kind it is in vivo. How it is done:
Insecticidal testing was conducted on specific compounds of the present invention. Specifically, the compounds referenced below were evaluated on 7-10 day old cotton seedlings infested with cotton aphid (Aphis gossypii). At least 12 hours prior to the test, leaf cuttings containing about 50 adult aphids were placed on leaves of each of duplicate cotton seedlings for each rate of application of compound of formula (I). Solutions of the compounds of formula (I) were prepared for testing by serial dilution of a standard solution comprised of an appropriate amount of the test material in a water/acetone solvent, which contained a small amount of a surfactant. Rates of application of compounds of formula (I) may range from about 1000 parts per million (ppm), or more, to about 3 ppm, or less, in a rate series of, for example, 1000 ppm, 300 ppm, 100 ppm, 30 ppm, 10 ppm, and 3 ppm. The solutions containing each rate of application of compounds of formula (I) were then sprayed to run-off to both the upper and lower portions of the leaves of the aphid-infested cotton seedlings. Each test of foliar-applied compounds of formula (I) included appropriate standard insecticides of known insecticidal activity and blank treatments to aid in assessing the insecticidal activity of the compounds of formula (I). Upon completion of the spraying with compounds of formula (I), the cotton seedlings were maintained in a growth chamber for a period of 72 hours. After this time, the seedlings were examined for dead insects. Insects were classified as dead if they were off-color or brown and desiccated. Upon completion of the evaluation of the test, the percent mortality of the cotton aphid for each rate of application of compounds of formula (I) was determined by comparison of the total number of dead insects to the total number of insects in the test.
Take `CCCCOc1ccc(CCOn2c(C)nc(C)c2C)cc1Cl` [Compound 9, 1-[2-(3-chloro-4-n-butoxyphenyl)ethoxy]-2,4,5-trimethylimidazole]: the mortality at 1000 ppm is 100%.

For `Cc1nc2ccccc2n1OCCc1ccc(C(C)(C)C)c(Cl)c1` [Compound 135, 1-[2-[3-chloro-4-(1,1-dimethylethyl)phenyl]ethoxy]-2-methylbenzimidazole], the mortality at 1000 ppm turned out to be 86%.

`CCCCOc1ccc(CCOn2c(C)nc3ccccc32)cc1Cl` [Compound 163, 1-[2-(3-chloro-4-n-butoxyphenyl)ethoxy]-2-methylbenzimidazole]: the mortality at 1000 ppm amounted to 88%.

Take `CCCCOc1ccc(CCOn2c(C)nc3c2CCCC3)cc1Cl` [Compound 244, 1-[2-(3-chloro-4-n-butoxyphenyl)ethoxy]-2-methyl-4,5,6,7-tetrahydrobenzimidazole]: the mortality at 1000 ppm amounted to 98%.

Regarding `CCCCOc1ccc(CCOn2c(C)nc3c(F)cccc32)cc1Cl` [Compound 246, 1-[2-(3-chloro-4-n-butoxyphenyl)ethoxy]-4-fluoro-2-methylbenzimidazole], the mortality at 1000 ppm stood at 100%.

On to `CCCCOc1ccc(CCOn2c(C)nc3c(C)cccc32)cc1Cl` [Compound 266, 1-[2-(3-chloro-4-n-butoxyphenyl)ethoxy]-2,4-dimethylbenzimidazole], for which the mortality at 1000 ppm turned out to be 100%.

For `CCCCOc1ccc(CCOn2nnc3ccccc32)cc1Cl` [Compound 285, 1-[2-(3-chloro-4-n-butoxyphenyl)ethoxy]-1H-benzotriazole], the mortality at 1000 ppm worked out at 31%.

As for `CCCOC(=O)c1ccc(CCNn2c(C)nc3ccccc32)cc1Cl` [Compound 302, propyl 2-chloro-4-[2-(2-methylbenzimidazol-1-ylamino)ethyl]benzoate], the mortality at 100 ppm was found to be 84%.

`CCCCOc1ccc(C(C)(C)CNn2c(C)nc3ccccc32)cc1` [Compound 305, 1-[[2-methyl-2-(4-n-butoxyphenyl)propyl]amino]-2-methylbenzimidazole]: the mortality at 1000 ppm is 96%.

Take `CCCCOc1ccc(CCNn2c(C)nc3ccccc32)cc1Cl` [Compound 314, 1-[2-(3-chloro-4-n-butoxyphenyl)ethylamino]-2-methylbenzimidazole]: the mortality at 1000 ppm stood at 100%.

Turning to `CCCCOc1c(C)cc(CCNn2c(C)nc3ccccc32)cc1C` [Compound 320, 1-[2-(3,5-dimethyl-4-n-butoxyphenyl)ethylamino]-2-methylbenzimidazole], the mortality at 100 ppm was found to be 99%.

With `CCCCOc1ccc(CCNn2c(C)nc3c(F)cccc32)cc1Cl` [Compound 323, 1-[2-(3-chloro-4-n-butoxyphenyl)ethylamino]-4-fluoro-2-methylbenzimidazole], the mortality at 100 ppm was 96%.

Regarding `CCCCOc1c(C)cc(CCNn2c(C)nc3cc(F)ccc32)cc1C` [Compound 329, 1-[2-(3,5-dimethyl-4-n-butoxyphenyl)ethylamino]-5-fluoro-2-methylbenzimidazole], the mortality at 100 ppm turned out to be 93%.

In the case of `CCCC(CCC)Oc1ccc(CCOn2c(C)nc3c(C)cccc32)cc1` [Compound 413, 1-[2-[4-(1-propylbutoxy)phenyl]ethoxy]-2,4-dimethylbenzimidazole], the mortality at 100 ppm was 80%.

`CCCCOc1ccc(CCNn2c(=O)n(C)c3ccccc32)cc1Cl` [Compound 417, 1-[2-(3-chloro-4-n-butoxyphenyl)ethylamino]-1,3-dihydro-3-methyl-2H-benzimidazol-2-one]: the mortality at 100 ppm worked out at 3%.

For the compound `CCON=Cc1c(F)cc(CCOn2c(C)nc3ccccc32)cc1F` [Compound 1323, 1-[2-(3,5-difluoro-4-ethoxyiminomethylphenyl)ethoxy]-2-methylbenzimidazole], the mortality at 100 ppm came out at 97%.
